Source: publication PMC11768549, “Optimization of Toxicity, Biodegradability, and Skin Irritation in Formulations Containing Mixtures of Anionic and Nonionic Surfactants Combined with Silica Nanoparticles” (Toxics, 2025)

Columns and labels:
[1] = Static biodegradation test (OECD 301E), DOC removal; details: initial 25 mg·L^−1; for B (surfactant biodegradability): percentage biodegraded after 50 h of assay; for t1/2 (half-life of biodegradation): time for 50% decrease of substrate, graphical
Experimental: The static biodegradation tests were conducted according to the OECD 301E guidelines, which focus on the removal of organic compounds measured as dissolved organic carbon (DOC). Solutions of the surfactant and surfactant–co-surfactant mixtures, serving as the sole carbon source for microorganisms, were tested in a mineral medium inoculated and incubated under aerobic conditions in the dark for 28 days. The initial concentration of the test substance for surfactant and surfactant–co-surfactant mixtures was set at 25 mg·L^−1.
The surfactant solution, for which biodegradability was to be determined, was inoculated with 0.5 mL of water from the secondary treatment stage of a sewage treatment plant (STP) operating with activated sludge (plus code: 597G+W2, Granada, Spain). The biodegradation process was monitored by measuring the residual surfactant concentration over time through DOC determinations in samples, filtered through a 0.45 µm Millipore membrane, using the total organic carbon (TOC) analyser Shimadzu VCSH/CSH (Shimadzu Co., Kyoto, Japan). Reference assays were performed with an easily biodegradable surfactant (linear alkylbenzene sulfonate) to determine the activity of the microbial population present in the test medium. […] All samples were tested in duplicate. The experimental setup included two flasks for the blank, two for the reference surfactant, two for the abiotic assay, and two for each of the surfactant concentrations tested.
The biodegradation of surfactants and their binary mixtures was assessed under aerobic conditions following the OECD 301E guidelines for ready biodegradability. The process was tracked by measuring the dissolved organic carbon (DOC) in the samples over time. […] Abiotic control tests, using HgCl2 to inhibit biological activity, confirmed that surfactant concentrations remained at nearly 100% throughout the degradation period. […] Figure 1 illustrates the progression of ultimate biodegradation of the surfactants and binary mixtures over the testing period. The assays were initiated with surfactant concentrations of 25 mg·L^−1.
To compare and quantify the biodegradation test, two key parameters of the biodegradation profiles were defined and analysed: (a) Half-life (t1/2) is the time required for the substrate concentration to decrease by 50% from the start of the biodegradation process. This value is determined using graphical methods based on the biodegradation curve. (b) Surfactant biodegradability (B) is defined as the percentage of surfactant that is biodegraded after 50 h of assay. Half-time and surfactant biodegradability results are shown in Table 5, together with mineralization values obtained using Equation (11).(11) Mineralization (%)=DOCi− [DOC]f/ [DOC]i·100 where
• DOCi is the dissolved organic carbon at the beginning of the test; • DOCf is the dissolved organic carbon at the end of the test.

zein = experiment: Irritation potential using the modified zein method (zein number); parameters: species or system corn; details: room temperature; for ZN 0.5%: each component 0.5% wt.; for ZN 1%: each component 1% wt.
Experimental: The irritant potential of surfactants, their mixtures, and the addition of silica nanoparticles was assessed using a modified zein method. This method is used to assess the potential irritation of chemicals or cosmetics on the skin. It is based on the interaction of a substance with proteins, particularly with the protein zein, which is a protein derived from corn. The modified zein method is recognized as an in vitro alternative to predict dermal irritation without the need to perform tests on animals. This method involves three stages to determine the amount of protein (zein) solubilized in a surfactant-containing solution: (1) zein denaturation, (2) oxidation and mineralization of organic matter, and (3) nitrate content measurement. All experiments were conducted at room temperature and performed in triplicate. For these tests, the final concentration of each component, whether pure or in a mixture, was set at 0.5% and 1% wt. These concentrations reflect typical dosages found in cosmetic, detergent, and personal hygiene products that come into direct contact with the skin. The zein number (ZN), expressed as mg of nitrogen (N) released per 100 g of surfactant solution, was calculated using the following formula: ZN = c/10(2) where c is the nitrogen concentration measured spectrophotometrically in ppm (mg·1000 mL^−1). Given that the density of the testing solution is 1 g·mL^−1, c is ultimately expressed as mg·1000 g^−1. Two control cases were used for validation: a negative control with deionized water and a positive control with 1% wt. sodium lauryl sulphate (SLS), a well-known surfactant with high irritant potential. The zein number (ZN) (Section 2.3) provides an indication of surfactant-induced potential skin irritation. According to the scale established by, surfactants can be classified as non-irritant, moderately irritant, irritant, or strongly irritant. The final concentration of each component, whether individual or in a mixture, was set at 0.5% and 1% wt.

[2] = parameters: method as in doi:10.1016/j.molliq.2023.122021; details: cited from earlier work; for CMC (±SD): critical micelle concentration; for HLB: hydrophilic–lipophilic balance
Vibrio fischeri = experiment: Luminescence inhibition assay in Vibrio fischeri (ISO 11348-2:2007, LumiStox 300); format: cell-based; details: 50% bioluminescence inhibition after 30 min exposure, pH 7.0, 2% NaCl; mixtures 1:1
Experimental: The toxicity measurement is based on the luminous intensity of marine bacteria of the strain V. fischeri NRRLB11177 after exposure to a toxic substance. Measurements were taken using the LumiStox 300 system, which includes a bioluminescence measuring instrument and an incubation unit, in accordance with the ISO 11348-2:2007 guideline. The luminescent bacteria, which were dehydrated and frozen at −18 °C, were reactivated with a suspension provided by Dr. Lange. The assay conditions were maintained at a pH of 7.0 with a NaCl concentration of 2%. Triplicate measurements were taken at incubation times of 30 min. The toxicity values were determined as EC50, representing the surfactant concentrations that inhibit 50% of the bioluminescence after 30 min of exposure. If necessary, the sample was filtered prior to the assay.
(§1) The toxicity of individual anionic and nonionic surfactants on V. fischeri and L. sativum was evaluated, and their EC50 results are presented in Table 2. For V. fischeri, toxicity values are expressed as EC50 values, determined using a logarithmic plot of sample concentration versus the percentage reduction in light intensity after a 30-min exposure period. This indicates the concentration at which there is a 50% reduction in bioluminescence. Similarly, for L. sativum, toxicity values are also expressed as EC50 values, which represent the concentration at which 50% growth inhibition is observed. This was measured by assessing the root and stem elongation after a 72-hour exposure period. The specific growth parameters, such as root length reduction, were used to determine the EC50 values.
(§2) The model of toxic units (MTU) was applied to quantify the interactions between toxicants in binary surfactant mixtures: FAE-R12–14E11 with EC-R12–14E3, FAE-R12–14E11 with EC-R12–14E10, and FAE-R12–14E11 with EC-R8E5. This approach helps predict whether the principles of concentration or response addition apply. The toxic unit for each component in the mixture (TUi) was calculated as the ratio between the concentration of the toxicant in the mixture [i] and its half-maximal effective concentration (EC50i) (Equation (7)). The total toxic unit of the mixture (TUmix) is the sum of the TUi values of the individual components […].(7) TUi=i/EC50i (8) TUmix=TUA+TUB=A/EC50A+B/EC50B
(§3) If the toxicants act independently (response addition), the predicted toxic unit (TUr) is calculated using Equations (9) and (10). If TUr ≈ TUmix, response addition can be expected.(9) If TUA>TUB TUr=1+TUB/TUA (10) If TUA<TUB TUr=1+TUA/TUB

Lepidium sativum = experiment: Germination test on Lepidium sativum seeds (ISO 18763:2016), root and stem elongation; format: in vivo; details: 72 h, 25 °C, dark, mixtures 1:1; for EC50, L. sativum (Root): 50% root growth inhibition; for EC50, L. sativum (Stem): 50% stem growth inhibition
Experimental: The germination test on L. sativum (cress) seeds is a static test of acute toxicity. This test allows for evaluating the phytotoxic effects produced in the seed germination process and the development of seedlings during the first days of growth (72 h). The garden cress test with L. sativum was carried out according to ISO-18763:2016 [28]. The inhibition in the elongation of the root and stem was determined.
Briefly, 25 L. sativum seeds were placed in a well-distributed manner in Petri dishes (100 mm Ø) containing filter paper saturated with 5 mL of the test solution. Distilled water was used as a control, and zinc (II) was used as a toxic reference compound. Each Petri dish was covered and sealed to prevent moisture loss. For 72 h, at 25 °C, and in the absence of light, the different samples were incubated in triplicate. Once the incubation was completed, the length of the root and stem of each germinated seed was measured with the help of graph paper. The inhibition of the root and stem growth by the test solutions was assessed in comparison with the control.
as §1, §2, §3

Substance | B (surfactant biodegradability) [1] [%] | t1/2 (half-life of biodegradation) [1] [h] | ZN 0.5% (zein) | ZN 1% (zein) | CMC (±SD) [2] | HLB [2] | EC50, V. fischeri (Vibrio fischeri) [µg/mL] | EC50, L. sativum (Root) (Lepidium sativum) [µg/mL] | EC50, L. sativum (Stem) (Lepidium sativum) [µg/mL]
Capryleth-6 Carboxylic Acid [EC-R8E5] | 9.40 | 118.20 | 49.15 ± 3.60 mg of nitrogen (N) released per 100 g of surfactant solution | 157.9 ± 7.40 mg of nitrogen (N) released per 100 g of surfactant solution | 97.9 ± 6.5 [17] mg·L^−1 | 11–14 [17] | 32.76 ± 3.60 | 53.61 ± 7.20 | 64.77 ± 6.50
Laureth-4 Carboxylic Acid [EC-R12–14E3] | 1.25 | 330.90 | 152.92 ± 7.25 mg of nitrogen (N) released per 100 g of surfactant solution | 183.5 ± 5.60 mg of nitrogen (N) released per 100 g of surfactant solution | 33.7 ± 3.1 [17] mg·L^−1 | 5.5 [17] | 3.58 ± 1.28 | 35.40 ± 4.80 | 93.25 ± 8.90
Laureth-11 Carboxylic Acid [EC-R12–14E10] | 10.30 | 130.50 |  |  | 70.8 ± 7.2 [17] mg·L^−1 | 9.5 [17] | 14.18 ± 4.32 | 32.02 ± 8.90 | 60.11 ± 6.52
Laureth-11/Myreth-11 [FAE-R12–14E11] | 2.40 | 185.80 |  |  | 18.5 ± 2.3 [17] mg·L^−1 | 14.3 [17] | 13.26 ± 3.26 | 338.17 ± 13.21 | 97.15 ± 7.14
